Source: patent US4342751A (priority 1981, dated 1982)
Like-named read-outs stand apart in the source and are kept apart here. Numbered stars: 1 amine (or outer) side, 2 acyl side, 3 side chain; on linkers, the order of the positions; unused ones are H or OH. Square brackets hold non-standard residues; d marks the D form. Peptide text beside a SMILES is read from it. X1 = CCC(N[*:1])C(C)C(=O)O[C@H](C(=O)[*:2])[C@@H](C)CC; X2 = C[C@H](N[*:1])C(=O)C(C)(C)C(=O)[*:2]; NMeY = CN[C@@H](Cc1ccc(O)cc1)C(=O)O; NMeI = CC[C@H](C)[C@H](NC)C(=O)O; NMeV = CN[C@H](C(=O)O)C(C)C

Assays:
Rhizoctonia solani = experiment: In vitro agar-dilution test; assay type: cell-based; details: for Percent Inhibition / Zone of Growth: Table 5; for Zone of Growth: control zone 27
Description: (§1) In these tests 100× solutions of majusculamide C in 95% aqueous ethanol were used. Majusculamide C solution (0.1 ml) and melted agar (9.9 ml) at 50° C. were mixed. An inoculum plug (6-mm diameter) was placed in the center of each plate; the radial growth of the colony was measured. Zone of growth was measured from the edge of the plug to the edge of the colony.

Sclerotinia homoeocarpa = experiment: In vitro agar-dilution test; assay type: cell-based; details: for Percent Inhibition / Zone of Growth: Table 5; for Zone of Growth: control zone 23
Description: as §1

Pythium aphanidermatum = experiment: In vitro agar-dilution test; assay type: cell-based; set-up: Zone of Growth: unit not given here
Description: as §1

Aphanomyces euteiches = experiment: In vitro agar-dilution test; assay type: cell-based; set-up: Zone of Growth: unit not given beside the values; details: for Zone of Growth: control zone 29
Description: as §1

Phytophthora infestans [1] = assay type: cell-based; details: for Zone of Growth: control zone 12
[2] = test system: Pythium ultimum Ridomil-sensitive strain; experiment: In vitro agar-dilution test, Ridomil-sensitive strain; assay type: cell-based; details: for Zone of Growth: control zone 39
[3] = test system: Pythium ultimum Ridomil-resistant strain; experiment: In vitro agar-dilution test, Ridomil-resistant strain; assay type: cell-based; details: for Zone of Growth: control zone 39
[4] = test system: Phytophthora capsici Ridomil-Sensitive strain; experiment: In vitro agar-dilution test, Ridomil-sensitive strain; assay type: cell-based; details: for Zone of Growth: control zone 27
[5] = test system: Phytophthora capsici Ridomil-resistant strain; experiment: In vitro agar-dilution test, Ridomil-resistant strain; assay type: cell-based; details: for Zone of Growth: control zone 28
Phytophthora infestans [6] = assay type: in vivo; set-up: key to Disease Control rating, Tomato Late Blight: 1=severe disease; 5=no disease; details: for Disease Control rating, Tomato Late Blight: 1-5 scale, average of two replicates
Solubility in solvents = assay type: physicochemical
[7] = test system: Tomato leaves (C. V. Rutgers); details: for Phytotoxicity rating, tomato leaves: average of two replicates
[8] = swimmer's itch; Mynderse et al., Science 196, 538-540 (1977); cited from earlier work
[9] = calculated from Table 5 results
[10] = 0.1 ppm, Table 7 experiment, control zone 32
[11] = 1.0 ppm, Table 7 experiment, control zone 32
[12] = calculated from Table 7 results
[13] = calculated from Table 9 results

CCC1NC(=O)[C@H](C)NC(=O)C(C)(C)C(=O)[C@H](C)NC(=O)[C@H](Cc2ccc(OC)cc2)N(C)C(=O)[C@H](C(C)C)N(C)C(=O)CNC(=O)[C@H]([C@@H](C)CC)N(C)C(=O)CNC(=O)[C@H]([C@@H](C)CC)OC(=O)C1C (some centres unmarked) [Majusculamide C, majusculamide C] (cyclo(A[X1]G[NMeI]G[NMeV][NMeY](Me)[X2]))
Percent Inhibition (Rhizoctonia solani; 1 ppm): 30% | Zone of Growth (Rhizoctonia solani; 1 ppm): 19 | Percent Inhibition (Rhizoctonia solani; 10 ppm): 63% | Zone of Growth (Rhizoctonia solani; 10 ppm): 10 | ED50 (effective dose to achieve 50% inhibition) (Rhizoctonia solani; [9]): 4 ppm | Control of fungus (Rhizoctonia solani; suitable tests, not specified, Rhizoctonia damping-off): control | Percent Inhibition (Sclerotinia homoeocarpa; 1 ppm): 26% | Zone of Growth (Sclerotinia homoeocarpa; 1 ppm): 17 | Percent Inhibition (Sclerotinia homoeocarpa; 10 ppm): 30% | Zone of Growth (Sclerotinia homoeocarpa; 10 ppm): 16 | ED50 (effective dose to achieve 50% inhibition) (Sclerotinia homoeocarpa; [9]): > 10 ppm | Percent Inhibition (Pythium aphanidermatum; 0.01 ppm, Table 7 experiment): 6% | Zone of Growth (Pythium aphanidermatum; 0.01 ppm, Table 7 experiment, control zone 32): 30 | Percent Inhibition (Pythium aphanidermatum; 0.1 ppm, Table 7 experiment): 62% | Zone of Growth (Pythium aphanidermatum; [10]): 12 | Percent Inhibition (Pythium aphanidermatum; 1 ppm, Table 5 experiment): 97% | Zone of Growth (Pythium aphanidermatum; 1 ppm, Table 5 experiment, control zone 28): 1 | Percent Inhibition (Pythium aphanidermatum; 1.0 ppm, Table 7 experiment): 95% | Zone of Growth (Pythium aphanidermatum; [11]): 1.5 | Percent Inhibition (Pythium aphanidermatum; 10 ppm, Table 5 experiment): 100% | Zone of Growth (Pythium aphanidermatum; 10 ppm, Table 5 experiment, control zone 28): 0 | Percent Inhibition (Pythium aphanidermatum; 10.0 ppm, Table 7 experiment): 100% | Zone of Growth (Pythium aphanidermatum; 10.0 ppm, Table 7 experiment, control zone 32): 0 | ED50 (effective dose to achieve 50% inhibition) (Pythium aphanidermatum; [9]): < 1 ppm | ED50 (Pythium aphanidermatum; [12]): 0.07 ppm | Percent Inhibition (Aphanomyces euteiches; 0.01 ppm): 7% | Zone of Growth (Aphanomyces euteiches; 0.01 ppm): 27 | Percent Inhibition (Aphanomyces euteiches; 0.1 ppm): 7% | Zone of Growth (Aphanomyces euteiches; 0.1 ppm): 27 | Percent Inhibition (Aphanomyces euteiches; 1.0 ppm): 29% | Zone of Growth (Aphanomyces euteiches; 1.0 ppm): 20.5 | Percent Inhibition (Aphanomyces euteiches; 10.0 ppm): 88% | Zone of Growth (Aphanomyces euteiches; 10.0 ppm): 3.5 | ED50 (Aphanomyces euteiches; [12]): 2.1 ppm | Percent Inhibition (Phytophthora infestans [1]; 0.01 ppm): 17% | Zone of Growth (Phytophthora infestans [1]; 0.01 ppm): 10 | Percent Inhibition (Phytophthora infestans [1]; 0.1 ppm): 42% | Zone of Growth (Phytophthora infestans [1]; 0.1 ppm): 7 | Percent Inhibition (Phytophthora infestans [1]; 1.0 ppm): 46% | Zone of Growth (Phytophthora infestans [1]; 1.0 ppm): 6.5 | Percent Inhibition (Phytophthora infestans [1]; 10.0 ppm): 100% | Zone of Growth (Phytophthora infestans [1]; 10.0 ppm): 0 | ED50 (Phytophthora infestans [1]; [12]): 1.07 ppm | Percent Inhibition ([2]; 0.1 ppm): 53% | Zone of Growth ([2]; 0.1 ppm): 18.5 | Percent Inhibition ([2]; 1 ppm): 88% | Zone of Growth ([2]; 1 ppm): 4.5 | Percent Inhibition ([2]; 10 ppm): 100% | Zone of Growth ([2]; 10 ppm): 0 | ED50 [2, 13]: < 0.1 ppm | Percent Inhibition ([3]; 0.1 ppm): 60% | Zone of Growth ([3]; 0.1 ppm): 15.5 | Percent Inhibition ([3]; 1 ppm): 91% | Zone of Growth ([3]; 1 ppm): 3.5 | Growth observation (footnote b) ([3]; 10 ppm): No growth on plug | Percent Inhibition ([3]; 10 ppm): 100% | Zone of Growth ([3]; 10 ppm): 0 | ED50 [3, 13]: < 0.5 ppm | Percent Inhibition ([4]; 0.1 ppm): 46% | Zone of Growth ([4]; 0.1 ppm): 14.5 | Percent Inhibition ([4]; 1 ppm): 74% | Zone of Growth ([4]; 1 ppm): 7 | Percent Inhibition ([4]; 10 ppm): 100% | Zone of Growth ([4]; 10 ppm): 0 | ED50 [4, 13]: 0.45 ppm | Percent Inhibition ([5]; 0.1 ppm): 48% | Zone of Growth ([5]; 0.1 ppm): 14.5 | Percent Inhibition ([5]; 1 ppm): 84% | Zone of Growth ([5]; 1 ppm): 4.5 | Percent Inhibition ([5]; 10 ppm): 98% | Zone of Growth ([5]; 10 ppm): 0.5 | ED50 [5, 13]: 0.25 ppm | Disease Control rating, Tomato Late Blight (Phytophthora infestans [6]; 6.25 ppm foliar spray): 5 | Disease Control rating, Tomato Late Blight (Phytophthora infestans [6]; 25 ppm foliar spray): 5 | Disease Control rating, Tomato Late Blight (Phytophthora infestans [6]; 100 ppm foliar spray): 5 | Disease Control rating, Tomato Late Blight (Phytophthora infestans [6]; 400 ppm foliar spray): 5 | Control of fungus (Phytophthora infestans [6]; suitable tests, not specified, tomato late blight): control | In vivo effectiveness against tomato late blight (Phytophthora infestans [6]; summary statement): effective | Solubility in organic solvents (Solubility in solvents; methanol, dichloromethane, and acetone): soluble | Solubility in water (Solubility in solvents; water): not soluble | Phytotoxicity rating, tomato leaves ([7]; 6.25 ppm foliar spray): 0 | Phytotoxicity rating, tomato leaves ([7]; 25 ppm foliar spray): 0 | Phytotoxicity rating, tomato leaves ([7]; 100 ppm foliar spray): 3.5 | Phytotoxicity observation, tomato leaves (footnote b) ([7]; 400 and 100 ppm foliar spray): Evidence of chlorosis | Phytotoxicity rating, tomato leaves ([7]; 400 ppm foliar spray): 4

COCC(=O)N(c1c(C)cccc1C)C(C)C(=O)OC (centres unmarked) [Ridomil (tech.), reference compound]
Percent Inhibition (Pythium aphanidermatum; 0.1 ppm, Table 7 experiment): 34% | Zone of Growth (Pythium aphanidermatum; [10]): 21 | Percent Inhibition (Pythium aphanidermatum; 1.0 ppm, Table 7 experiment): 94% | Zone of Growth (Pythium aphanidermatum; [11]): 2 | Percent Inhibition (Aphanomyces euteiches; 0.1 ppm): 7% | Zone of Growth (Aphanomyces euteiches; 0.1 ppm): 27 | Percent Inhibition (Aphanomyces euteiches; 1.0 ppm): 3% | Zone of Growth (Aphanomyces euteiches; 1.0 ppm): 28 | Percent Inhibition (Phytophthora infestans [1]; 0.1 ppm): 50% | Zone of Growth (Phytophthora infestans [1]; 0.1 ppm): 6 | Percent Inhibition (Phytophthora infestans [1]; 1.0 ppm): 83% | Zone of Growth (Phytophthora infestans [1]; 1.0 ppm): 2

CO[C@@H](CC[C@H](C)[C@H]1O[C@@]23C[C@H](OC(=O)C[C@H]([C@@H](C)O)OC(=O)C[C@](O)(O2)[C@H](C)CC3(C)C)[C@@H]1C)c1cccc(O)c1 [debromoaplysiatoxin]
Contact dermatitis [8]: causes a severe contact dermatitis
